Reference: paper PMC12268261, “The aldehyde (ALD) locus controls C6-aldehyde production in kiwifruit and affects consumer perception of fruit aroma” (Plant Physiology, 2025)
Read-outs that look alike come from different tables or passages of the source.

Columns and labels:
AcLOX4c-D1 = target: T1, AcLOX4c-D1 (Actinidia chinensis, UniProt Z9ABF8LHO4); experiment: spectrophotometric, product formation at […] nm; format: biochemical; conditions: air-saturated 30 mM Tris-Cl, pH 7.5; substrate inhibition at >50 µM; read-out: Km-app /
T1 construct: N-terminal HIS6-MBP fusion (pMAL-c6T), tag kept; E. coli BL21 (DE3) Codon Plus RIL
T1 sequence (Z9ABF8LHO4 57-898): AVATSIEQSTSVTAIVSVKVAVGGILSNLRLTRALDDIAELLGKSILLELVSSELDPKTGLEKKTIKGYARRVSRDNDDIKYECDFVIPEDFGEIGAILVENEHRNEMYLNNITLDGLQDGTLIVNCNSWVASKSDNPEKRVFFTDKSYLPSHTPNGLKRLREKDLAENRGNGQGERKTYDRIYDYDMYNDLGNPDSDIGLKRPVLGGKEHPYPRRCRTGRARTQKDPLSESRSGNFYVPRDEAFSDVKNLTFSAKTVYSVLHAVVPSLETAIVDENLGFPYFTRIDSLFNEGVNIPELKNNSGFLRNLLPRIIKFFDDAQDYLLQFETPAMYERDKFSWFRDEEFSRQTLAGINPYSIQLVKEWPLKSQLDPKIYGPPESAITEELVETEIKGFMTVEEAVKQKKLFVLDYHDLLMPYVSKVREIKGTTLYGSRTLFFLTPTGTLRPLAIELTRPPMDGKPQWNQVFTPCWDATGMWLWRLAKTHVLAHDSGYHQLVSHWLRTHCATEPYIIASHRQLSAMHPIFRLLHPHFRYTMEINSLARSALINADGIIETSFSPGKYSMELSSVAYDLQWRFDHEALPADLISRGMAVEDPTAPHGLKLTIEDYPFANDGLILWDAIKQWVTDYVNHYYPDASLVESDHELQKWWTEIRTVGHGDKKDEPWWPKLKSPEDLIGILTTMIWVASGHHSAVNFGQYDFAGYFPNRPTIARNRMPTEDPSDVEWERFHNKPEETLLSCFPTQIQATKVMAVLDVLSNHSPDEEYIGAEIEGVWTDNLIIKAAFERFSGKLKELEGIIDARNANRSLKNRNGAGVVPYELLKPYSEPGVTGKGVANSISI

AcLOX4a-D1 = target: T2, AcLOX4a-D1 (Actinidia chinensis, UniProt A0A2R6P8A4); experiment: spectrophotometric, product formation at […] nm; format: biochemical; conditions: air-saturated 30 mM Tris-Cl, pH 7.5, read-out: Km-app /
T2 construct: gene CEY00_Acc32486; N-terminal HIS6-MBP fusion (pMAL-c6T), tag kept; E. coli BL21 (DE3) Codon Plus RIL
T2 sequence (A0A2R6P8A4 entry or part of it): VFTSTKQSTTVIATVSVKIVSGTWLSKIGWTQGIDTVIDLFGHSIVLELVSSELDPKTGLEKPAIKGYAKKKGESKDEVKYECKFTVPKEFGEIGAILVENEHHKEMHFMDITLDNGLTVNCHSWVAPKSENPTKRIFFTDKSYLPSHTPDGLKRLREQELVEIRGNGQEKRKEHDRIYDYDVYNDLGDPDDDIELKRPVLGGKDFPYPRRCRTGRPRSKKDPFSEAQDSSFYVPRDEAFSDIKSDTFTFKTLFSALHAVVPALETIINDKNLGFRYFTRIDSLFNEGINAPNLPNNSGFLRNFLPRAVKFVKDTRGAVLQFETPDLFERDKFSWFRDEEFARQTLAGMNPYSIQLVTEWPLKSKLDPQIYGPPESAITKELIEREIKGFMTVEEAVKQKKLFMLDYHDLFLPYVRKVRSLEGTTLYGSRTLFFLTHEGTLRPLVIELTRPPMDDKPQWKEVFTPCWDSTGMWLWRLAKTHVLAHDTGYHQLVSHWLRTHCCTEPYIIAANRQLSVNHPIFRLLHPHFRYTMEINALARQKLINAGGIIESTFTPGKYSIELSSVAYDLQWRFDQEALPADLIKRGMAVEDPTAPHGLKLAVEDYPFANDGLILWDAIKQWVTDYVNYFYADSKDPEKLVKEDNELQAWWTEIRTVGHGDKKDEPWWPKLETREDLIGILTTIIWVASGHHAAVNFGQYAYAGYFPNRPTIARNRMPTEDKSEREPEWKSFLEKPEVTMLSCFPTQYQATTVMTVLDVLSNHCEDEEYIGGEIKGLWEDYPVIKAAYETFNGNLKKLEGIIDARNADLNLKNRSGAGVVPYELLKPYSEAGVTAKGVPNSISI

Km (AcLOX4c-D1) [µM]	Km (AcLOX4a-D1; substrate inhibition at >125 µM) [µM]	Km (AcLOX4a-D1) [µM]	Compound
59.2	193	–	CCCCC/C=C\C/C=C\CCCCCCCC(=O)O [linoleic acid]
–	–	133	CC/C=C\C/C=C\C/C=C\CCCCCCCC(=O)O [α-linolenic acid]
